From patent US20240016788A1, “PHARMACEUTICAL COMPOSITION FOR PREVENTING OR TREATING DIABETIC AND POSTMENOPAUSAL OSTEOPOROSIS, CONTAINING ADIPORON” (PnP Biopharm Co., Ltd., priority 2020, published 2024)

Assays:
Assay type in all cases: in vivo
[1] = test system: type 2 diabetic db/db mice; assay: Micro-CT of ilium (femur) and lumbar vertebra 5, db/db mice; conditions: adiporon 30 mg/kg/day, 4 weeks
Method: A leptin receptor-defective type 2 diabetic animal model (db/db mice) and a normal control group (db/m mice) were used, and the experiment was performed by dividing into 4 groups as follows: non-diabetic control group (dm cont, n=8), non-diabetic adiporon treatment group (dm+AdipoR, n=8), diabetic control group (db cont, n=8) and diabetic adiporon treatment group (db+AdipoR, n=8). The control group was fed a normal diet, and the adiporon treatment group was fed a diet comprising adiporon (30 mg/kg/day) for 4 weeks from 16 weeks of age. During the experiment, body weight was measured every week, fasting blood glucose was measured using an Accu-Chek meter (Roche Diagnostics, St. Louis, MO) every 2 weeks after blood was collected from the tail vein, and glycated hemoglobin (HbA1c) was measured every 4 weeks using a […] automatic analyzer (Bayer healthcare LLC, IN) after blood was collected from the tail vein. The temperature and humidity of the breeding room were maintained at 20˜25° C. and 50˜60%, respectively, and the lights were turned on and off at 12-hour intervals. The imaging was performed with micro-CT (Skyscan 1172, Belgium), the tube voltage was 60 kV, the tube current was 167 uA, 0.5 mm aluminum filtration was used, and the pixel size was 5.9 μm. For the shooting angle, a 2-dimensional image was reconstructed with Nrecon Reconstruction (Skyscan, Belgium). For 3D image analysis, CTAn (Skyscan, Belgium) was used, images were obtained by rotating 360°, and exposure time was 440 ms. A total of 7 types of indicators were used in this invention. BMD (bone mineral density, bone density) was measured based on phantoms of 0.25 g/cm^3 and 0.75 g/cm^3. BV/TV (Bone volume/Total volume, percent bone volume, %) is the ratio of voxels representing the solid region out of the total voxels present in the binarized and surfaced volume of interest, and it means the ratio occupied by bone trabeculae within the volume of interest, and i.s (Interception surfaces, mm2) means the generation of new bone. […] BS/BV (Bone surface/Bone volume, bone specific surface, mm^−1) is the ratio of the voxel surface area to the number of voxels in the binarized solid region within the volume of interest and it means the ratio of the surface area of the trabecular bone to the volume of the trabecular bone. The lower the value, the higher the bone strength. Tb.Th (trabecular thickness, mm) is obtained by averaging the diameters of these spheres, after placing a sphere comprising the corresponding voxel for each voxel representing the solid region within the volume of interest so that the size of the sphere is the largest that includes only the solid region and it means the average thickness of the trabecular bone. […] In the same way, using Tb.Sp (trabecular separation, mm), the average length between trabecular lines and Tb.N (trabecular number, mm^−1) were used to obtain the average number of trabecular lines.

[2] = test system: ovariectomized C57BL/6 mice; assay: Growth plate staining (trichrome, Safranin O) of ilium, ovariectomized mice; conditions: 6 weeks
Method: 7 weeks after ovariectomization or sham surgery of 7-week-old C57BL/6 mice, normal feed group (adiporon non-administered group; control group) administration group, 2.5 mg/kg day or 25 mg/kg day, respectively Feed comprising adiporon was consumed for 6 weeks from 14 weeks of age. Body weight was measured every week during the experiment period, and the experiment was conducted after 6 weeks of administration. […] Thereafter, after neutralization with 0.5M Phosphate buffer (pH 7.4), washing, and embedding in paraffin. Tissue sections were cut to a thickness of 5 μm, and hematoxylin and eosin staining (H&E staining), trichrome staining, and Safranin O staining were performed. In bone tissue, double immunofluorescence staining method was performed using anti-adiponectin receptor 1/2 antibody, anti-perilipin-1 antibody, anti-RANKL antibody, anti-TNF-α antibody, and ApopTag Fluorescein In Situ Apoptosis Detection Kit (Chemicon International, Temecula, CA) and expression was observed using a confocal microscope.

[3] = test system: type 2 diabetic db/db mice; assay: Histological examination (H&E, trichrome, Safranin O) of ilium (femur) and lumbar vertebra 5, db/db mice; conditions: adiporon 30 mg/kg/day, 4 weeks
Method: A leptin receptor-defective type 2 diabetic animal model (db/db mice) and a normal control group (db/m mice) were used, and the experiment was performed by dividing into 4 groups as follows: non-diabetic control group (dm cont, n=8), non-diabetic adiporon treatment group (dm+AdipoR, n=8), diabetic control group (db cont, n=8) and diabetic adiporon treatment group (db+AdipoR, n=8). The control group was fed a normal diet, and the adiporon treatment group was fed a diet comprising adiporon (30 mg/kg/day) for 4 weeks from 16 weeks of age. During the experiment, body weight was measured every week, fasting blood glucose was measured using an Accu-Chek meter (Roche Diagnostics, St. Louis, MO) every 2 weeks after blood was collected from the tail vein, and glycated hemoglobin (HbA1c) was measured every 4 weeks using a […] automatic analyzer (Bayer healthcare LLC, IN) after blood was collected from the tail vein. The temperature and humidity of the breeding room were maintained at 20˜25° C. and 50˜60%, respectively, and the lights were turned on and off at 12-hour intervals. After removing tissues of the femur and L5 lumbar vertebrae, some of them were fixed in 10% formalin for immunostaining and decalcified. Thereafter, after neutralization with 0.5M Phosphate buffer (pH 7.4), washing, and embedding in paraffin. Tissue sections were cut to a thickness of 5 μm, and hematoxylin and eosin staining (H&E staining), trichrome staining, and Safranin O staining were performed. In bone tissue, double immunofluorescence staining method was performed using anti-adiponectin receptor 1/2 antibody, anti-perilipin-1 antibody, anti-RANKL antibody, anti-TNF-α antibody, and ApopTag Fluorescein In Situ Apoptosis Detection Kit (Chemicon International, Temecula, CA) and expression was observed using a confocal microscope.

Cl.O=C(COc1ccc(C(=O)c2ccccc2)cc1)NC1CCN(Cc2ccccc2)CC1 [adiporon]
Bone mineral density index (micro-CT) ([1]; ilium): significantly increased and improved | Bone surface index (micro-CT) ([1]; ilium): significantly increased and improved | Bone volume index (micro-CT) ([1]; ilium): significantly increased and improved | Trabecular number index (micro-CT) ([1]; ilium): significantly increased and improved | Trabecular thickness index (micro-CT) ([1]; ilium): significantly increased and improved | Trabecular thickness (micro-CT) ([1]; vertebrae (lumbar vertebrae 5)): increased and improved | Decreased thickness of the iliac growth plate ([2]; adiporon 2.5 mg/kg day): increased | Decreased thickness of the iliac growth plate ([2]; adiporon 25 mg/kg day): increased | Decrease in the ilium growth plate (thickness) ([3]; ilium (femur)): recovered | Increase in adipose tissue in tissue ([3]; ilium (femur)): recovered | Increase in fibrosis in tissue ([3]; ilium (femur)): recovered | Increase in adipose tissue in tissue ([3]; vertebrae (lumbar vertebrae 5)): reversed | Increase in fibrosis in tissue ([3]; vertebrae (lumbar vertebrae 5)): reversed
